Results published in patent US11787790B2, “Benzimidazole derivative having fluorine-containing substituent, preparation and application thereof” (YUNBAIYAO ZHENGWU SCIENCE AND TECHNOLOGY (SHANGHAI) CO., …, priority 2020, dated 2023).

Experiments:
[1] = test system: U87MG cells (human malignant glioma cells); assay: CCK-8 anti-proliferation assay, U87MG cells; format: cell-based; details: U-87 MG, CCK-8, 72 hours incubation, read-out: U87MG cell IC50
Experimental: (§1) The anti-proliferation activities of compounds 1-11 to U87MG cells (human malignant glioma cells, ATCC 5018014), NCI-H1975 cells (human non-small cell lung adenocarcinoma cells, ATCC 57849016), A549 cells (human non-small cell lung cancer cells, ATCC 7503618), HCT 116 (human colon cancer cells, ATCC 4587576), and MCF-7 (human breast cancer cells, ATCC 5105360) were verified by using a CCK-8 method.
(§2) A sample stock solution with a concentration of 20 μM was prepared first. The stock solution was sequentially diluted to obtain 10 samples with concentrations of 20000 nM, 4000 nM, 800 nM, 160 nM, 32 nM, 6.4 nM, 1.28 nM, 0.256 nM, 0.0512 nM, and 0.01024 nM, respectively.
(§3) 50 μL of cell suspension with density of 2*10^4 cells/mL was prepared in 96-well plates followed by pre-culturing in the incubator for 24 hours (37° C., 5% CO2). 50 μL of afore-mentioned sample solution was added into each well. After incubated for 72 hours, 10 μl of CCK-8 solution was added into each well, and then further incubated for additional 2 hours.

[2] = test system: NCI-H1975 cells (human non-small cell lung adenocarcinoma cells); assay: CCK-8 anti-proliferation assay, NCI-H1975 cells; format: cell-based; details: CCK-8, 72 hours incubation
Experimental: as §1, §2, §3

[3] = test system: A549 cells (human non-small cell lung cancer cells); assay: CCK-8 anti-proliferation assay, A549 cells; format: cell-based; details: CCK-8, 72 hours incubation
Experimental: as §1, §2, §3

[4] = test system: HCT 116 (human colon cancer cells); assay: CCK-8 anti-proliferation assay, HCT 116 cells; format: cell-based; details: CCK-8, 72 hours incubation, read-out: HCT116 cell IC50
Experimental: as §1, §2, §3

[5] = test system: MCF-7 (human breast cancer cells); assay: CCK-8 anti-proliferation assay, MCF-7 cells; format: cell-based; details: MCF7, CCK-8, 72 hours incubation, read-out: MCF-7 cell IC50
Experimental: as §1, §2, §3

[6] = Determination of half-lethal dose (LD50) in mice; details: both sexes, mouse, in vivo, Kunming mice, gastric administration, Bliss calculation method
Experimental: The SPF-grade Kunming mice, belonging to the outbred stock and weighing 20±2 g, were selected (a ratio of the males to the females was 1:1). The dosage range of each compound was explored through pre-experiments. After that, formal tests were carried out. In the range of 0-100% of the lethal dose obtained by the pre-experiments, five doses were selected to increase or decrease according to the isobaric series to allow the mortality of one half of the groups to be 50% or above, and the other half to be 50% or less. After animal grouping and dosage calculation were completed, gastric administration was performed according to the group. The time from the administration to the beginning of the occurrence of toxic reaction, the poisoning phenomenon and the occurrence sequence thereof, the time of the first occurrence of death, the time of death concentration, and the time of the last occurrence of death were recorded. The number of deaths in each group was recorded day by day.

[7] = in vivo; cited from earlier work
[8] = oral administrated; cited from earlier work

## N#CCCNc1nonc1-c1nc2ccccc2n1CC(F)(F)c1ccc(N)cc1 [Compound 1, 3-[(4-{1-[2-(4-aminophenyl)-2,2-difluoroethyl]-1H-benzimidazol-2-yl}-1,2,5-oxadiazol-3-yl)amino] propionitrile]
[1]
  IC50: 31.3 nM
[2]
  IC50: 19.4 nM
[3]
  IC50: 29 nM
[4]
  IC50: 19.7 nM
[5]
  IC50: 33 nM
[6]; oral
  LD50: 267 mg/kg

## N#CCCNc1nonc1-c1nc2c(O)cccc2n1CC(F)(F)c1ccc(N)cc1 [Compound 2]
[1]
  IC50: 22.4 nM
[2]
  IC50: 31.2 nM
[3]
  IC50: 18.2 nM
[4]
  IC50: 28.3 nM
[5]
  IC50: 17.4 nM
[6]; oral
  LD50: 245 mg/kg

## N#CCCNc1nonc1-c1nc2cc(O)ccc2n1CC(F)(F)c1ccc(N)cc1 [Compound 3]
[1]
  IC50: 13.2 nM
[2]
  IC50: 13.3 nM
[3]
  IC50: 26.8 nM
[4]
  IC50: 13.6 nM
[5]
  IC50: 13.2 nM
[6]; oral
  LD50: 239 mg/kg

## N#CCCNc1nonc1-c1nc2c(Cl)cccc2n1CC(F)(F)c1ccc(N)cc1 [Compound 4]
[1]
  IC50: 27.3 nM
[2]
  IC50: 14.9 nM
[3]
  IC50: 12.9 nM
[4]
  IC50: 12.1 nM
[5]
  IC50: 21.7 nM
[6]; oral
  LD50: 262 mg/kg

## N#CCCNc1nonc1-c1nc2cc(Cl)ccc2n1CC(F)(F)c1ccc(N)cc1 [Compound 5]
[1]
  IC50: 15.7 nM
[2]
  IC50: 27.4 nM
[3]
  IC50: 13.2 nM
[4]
  IC50: 35.8 nM
[5]
  IC50: 16.9 nM
[6]; oral
  LD50: 264 mg/kg

## N#CCCNc1nonc1-c1nc2cc(C(F)(F)F)ccc2n1CC(F)(F)c1ccc(N)cc1 [Compound 6]
[1]
  IC50: 34.2 nM
[2]
  IC50: 11.9 nM
[3]
  IC50: 14.7 nM
[4]
  IC50: 17.2 nM
[5]
  IC50: 13.2 nM
[6]; oral
  LD50: 254 mg/kg

## Cc1ccc2c(c1)nc(-c1nonc1NCCC#N)n2CC(F)(F)c1ccc(N)cc1 [Compound 7]
[1]
  IC50: 12.5 nM
[2]
  IC50: 32.4 nM
[3]
  IC50: 13.9 nM
[4]
  IC50: 13.7 nM
[5]
  IC50: 25.7 nM
[6]; oral
  LD50: 239 mg/kg

## N#CCCNc1nonc1-c1nc2ccccc2n1CC(F)c1ccc(N)cc1 (stereo not drawn) [Compound 8, 3-[(4-{1-[2-(4-aminophenyl)-2-fluoroethyl]-1H-benzimidazol-2-yl}-1,2,5-oxadiazol-3-yl)amino] propionitrile]
[1]
  IC50: 15.6 nM
[2]
  IC50: 17.5 nM
[3]
  IC50: 33.7 nM
[4]
  IC50: 24.4 nM
[5]
  IC50: 22.8 nM
[6]; oral
  LD50: 291 mg/kg

## N#CCCNc1nonc1-c1nc2ccccc2n1C(F)(F)c1ccc(N)cc1 [Compound 9]
[1]
  IC50: 23.9 nM
[2]
  IC50: 19.8 nM
[3]
  IC50: 28.7 nM
[4]
  IC50: 28.5 nM
[5]
  IC50: 32.8 nM
[6]; oral
  LD50: 305 mg/kg

## N#CCCNc1nonc1-c1nc2ccccc2n1CCC(F)(F)c1ccc(N)cc1 [Compound 10]
[1]
  IC50: 41.2 nM
[2]
  IC50: 34.3 nM
[3]
  IC50: 41.5 nM
[4]
  IC50: 38.7 nM
[5]
  IC50: 38.5 nM
[6]; oral
  LD50: 323 mg/kg

## N#CCCNc1nonc1-c1nc2ccccc2n1CC(=O)c1ccc(N)cc1 [Compound 11, 3-{[4-(1-(4-aminoacetophenone)-benzimidazol-2-yl)-1,2,5-oxadiazol-3-yl]amino}propionitrile, reference compound]
[1]
  IC50: 51.2 nM
[2]
  IC50: 42.8 nM
[3]
  IC50: 42.4 nM
[4]
  IC50: 52.6 nM
[5]
  IC50: 39.2 nM
[6]
  LD50: 153 mg/kg
[7]
  crossing the blood-brain barrier: capable of crossing the blood-brain barrier

## Cn1nnc2c(C(N)=O)ncn2c1=O [Temozolomide]
[8]
  bioavailability: ~100%
[7]
  crossing the blood-brain barrier: can cross the blood-brain barrier
